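Test compounds were applied to cells in 96-well plates for 48 hours at 5 doses. At the TGI there is no net growth.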 *1 amine or outer side, *2 acyl side, *3 side chain or, on linkers, in order; H or OH if unused. Where a SMILES comes first, the peptide text is derived from it. Bridges are numbered along the chain shown (N, C = ends). [ ]: non-standard residue; d: D form. The star is where a group is joined. ξ: configuration not given here. X34 = O=C(C(CCCCNO[*:3])N[*:1])[*:2]; Fmoc = O=C(OCC1c2ccccc2-c2ccccc21)*; ξLac(3-iPr) = CC(C)CC(O)C(=O)O; NMeV = CN[CH](C(=O)O)C(C)C; NMeA = CN[CH](C)C(=O)O; βAla = NCCC(=O)O
Legend:
Assay in all cases: NCI-60 cell line screen, 48 h
SR leukemia = test system: SR leukemia
NCI-H522 lung = test system: NCI-H522 lung
SF-539 CNS = test system: SF-539 CNS
HCT-116 colon = test system: HCT-116 colon
MCF7 breast = test system: MCF7 breast
U251 CNS = test system: U251 CNS
SK-OV-3 ovarian = test system: SK-OV-3 ovarian
MOLT-4 leukemia = test system: MOLT-4 leukemia
NCI-H23 lung = test system: NCI-H23 lung
NCI-H460 lung = test system: NCI-H460 lung
NCI/ADR-RES ovarian = test system: NCI/ADR-RES ovarian
SK-MEL-2 melanoma = test system: SK-MEL-2 melanoma
TK-10 renal = test system: TK-10 renal
T-47D breast = test system: T-47D breast
MDA-MB-435 = test system: MDA-MB-435
A549 NSCLC = test system: A549 NSCLC
HOP-92 NSCLC = test system: HOP-92 NSCLC
COLO 205 colon = test system: COLO 205 colon
SK-MEL-28 melanoma = test system: SK-MEL-28 melanoma

SMILES	TGI (SR leukemia)	TGI (NCI-H522 lung)	TGI (SF-539 CNS)	TGI (HCT-116 colon)	TGI (MCF7 breast)	TGI (U251 CNS)	TGI (SK-OV-3 ovarian)	TGI (MOLT-4 leukemia)	TGI (NCI-H23 lung)	TGI (NCI-H460 lung)	TGI (NCI/ADR-RES ovarian)	TGI (SK-MEL-2 melanoma)	TGI (TK-10 renal)	TGI (T-47D breast)	TGI (MDA-MB-435)	TGI (A549 NSCLC)	TGI (HOP-92 NSCLC)	TGI (COLO 205 colon)	TGI (SK-MEL-28 melanoma)
COc1cc2c(cc1O)C1(Cc3ccc4c(c3C1=O)OCO4)N(C)CC2 (centres undefined)	> 100 µM	> 100 µM	> 100 µM	> 100 µM	> 100 µM	> 100 µM	> 100 µM	> 100 µM	> 100 µM	> 100 µM	> 100 µM	> 100 µM	> 100 µM	> 100 µM	> 100 µM	> 100 µM	> 100 µM	> 100 µM	> 100 µM
CCCCCCCCCCCCCCCCOP(=O)(O)OCC(NC(C)=O)C(=O)O (centres undefined)	> 100 µM	> 100 µM	> 100 µM	> 100 µM	> 100 µM	40.8 µM	> 100 µM	51.8 µM	> 100 µM	> 100 µM	> 100 µM	> 100 µM	62.6 µM	> 100 µM	> 100 µM	> 100 µM	> 100 µM	> 100 µM	> 100 µM
CC(C)Oc1cccc(N2C(=NCCc3c[nH]c4ccccc34)Nc3ccncc3S2(=O)=O)c1	> 100 µM	> 100 µM	> 100 µM	> 100 µM	> 100 µM	> 100 µM	> 100 µM	> 100 µM	> 100 µM	> 100 µM	> 100 µM	> 100 µM	> 100 µM	> 100 µM	> 100 µM	> 100 µM	> 100 µM	4.08 µM	> 100 µM
COC1(OC)C=CC2C1C1C=CC2C1(OC)OC (centres undefined)	> 100 µM	> 100 µM	> 100 µM	> 100 µM	> 100 µM	> 100 µM	> 100 µM	> 100 µM	> 100 µM	> 100 µM	> 100 µM	> 100 µM	> 100 µM	> 100 µM	> 100 µM	> 100 µM	> 100 µM	> 100 µM	> 100 µM
ON[C@H]1C[C@@H](n2cnc3c(NC4CC4)ncnc32)[C@H](O)[C@@H]1O	> 100 µM	> 100 µM	> 100 µM	> 100 µM	> 100 µM	> 100 µM	> 100 µM	> 100 µM	> 100 µM	> 100 µM	> 100 µM	> 100 µM	> 100 µM	> 100 µM	> 100 µM	> 100 µM	> 100 µM	> 100 µM	> 100 µM
NC(=O)CNC(=O)C1CCCN1C(=O)C1CCCCNOC(=O)CCC(NC(=O)OCC2c3ccccc3-c3ccccc32)C(=O)NC(Cc2c[nH]c3ccccc23)C(=O)N1 (centres undefined) (Fmoc-EW[X34]PG-NH2; ester 1-3; configuration not given here)	> 100 µM	> 100 µM	> 100 µM	> 100 µM	> 100 µM	> 100 µM	> 100 µM	> 100 µM	> 100 µM	> 100 µM	> 100 µM	> 100 µM	> 100 µM	> 100 µM	> 100 µM	> 100 µM	> 100 µM	> 100 µM	> 100 µM
CC(C)(C)OC(=O)NCCNCCNc1ccccc1	> 100 µM	> 100 µM	> 100 µM	> 100 µM	> 100 µM	> 100 µM	> 100 µM	> 100 µM	> 100 µM	> 100 µM	> 100 µM	> 100 µM	> 100 µM	> 100 µM	> 100 µM	> 100 µM	> 100 µM	> 100 µM	> 100 µM
COc1ccc(N=NC(=Nc2ccc(Cl)cc2)c2ccc(N(CCC#N)CCC#N)cc2)cc1	> 100 µM	45.3 µM	> 100 µM	> 100 µM	> 100 µM	> 100 µM	> 100 µM	91.6 µM	> 100 µM	> 100 µM	> 100 µM	14.5 µM	> 100 µM	78 µM	> 100 µM	> 100 µM	93 µM	> 100 µM	> 100 µM
O=C(O)CCC(N=NNc1ccc(-c2nc3ccccc3[nH]2)cc1)C(=O)O (centres undefined)	> 100 µM	> 100 µM	> 100 µM	> 100 µM	> 100 µM	> 100 µM	> 100 µM	> 100 µM	> 100 µM	> 100 µM	> 100 µM	> 100 µM	> 100 µM	> 100 µM	> 100 µM	> 100 µM	> 100 µM	> 100 µM	> 100 µM
CCC(C)C1NC(=O)C2CCCN2C(=O)C(CC(C)C)OC(=O)CCNC(=O)C(C)N(C)C(=O)C(C(C)C)N(C)C1=O (centres undefined) (cyclo([ξLac(3-iPr)]PI[NMeV][NMeA][βAla]); configuration not given here)	> 56.5 µM	60.2 µM	> 80.3 µM	19.6 µM	> 26.7 µM	> 100 µM	> 86.8 µM	21 µM	> 71.6 µM	> 100 µM	> 86.9 µM	8.81 µM	> 100 µM	38.9 µM	13.5 µM	> 100 µM	> 100 µM	17.2 µM	> 100 µM
OC(c1ccc2c(c1)OCO2)c1ccc2c(c1)OCO2	> 100 µM	> 100 µM	> 100 µM	> 100 µM	> 100 µM	> 100 µM	> 100 µM	> 100 µM	> 100 µM	> 100 µM	> 100 µM	> 100 µM	> 100 µM	> 100 µM	> 100 µM	> 100 µM	> 100 µM	> 100 µM	> 100 µM
O=C1c2ccccc2C2C1C(c1ccccc1)C1(Cc3ccccc3C1=O)C2c1ccccc1 (centres undefined)	> 100 µM	> 100 µM	> 100 µM	> 100 µM	> 100 µM	> 100 µM	> 100 µM	> 100 µM	> 100 µM	> 100 µM	> 100 µM	> 100 µM	> 100 µM	> 100 µM	> 100 µM	> 100 µM	> 100 µM	> 100 µM	> 100 µM
COc1cc(/C=C\c2nnc(/C=C\c3ccc(O)c(OC)c3)s2)ccc1O	7.37 µM	5.57 µM	> 26.4 µM	14 µM	11.3 µM	17.1 µM	30.6 µM	10.7 µM	12.2 µM	> 35.2 µM	14.2 µM	26 µM	> 51.2 µM	7.38 µM	0.549 µM	> 54.7 µM	42.2 µM	41.4 µM	> 100 µM
CSC1=NNC(SC)=NN1	0.0483 µM	0.555 µM	0.413 µM	0.303 µM	0.396 µM	0.319 µM	0.382 µM	0.114 µM	0.7 µM	0.385 µM	> 1 µM	0.281 µM	0.357 µM	0.33 µM	0.321 µM	0.406 µM	0.316 µM	0.413 µM	0.326 µM
O=C(N/N=C/c1ccc([N+](=O)[O-])cc1)Nc1ccc(Br)cc1	> 100 µM	> 100 µM	> 100 µM	> 100 µM	> 100 µM	> 100 µM	> 100 µM	> 100 µM	> 100 µM	> 100 µM	> 100 µM	> 100 µM	> 100 µM	> 100 µM	> 100 µM	> 100 µM	> 100 µM	> 100 µM	> 100 µM
Cc1ccc(OCC2OC(n3cnc4c(Cl)nc(Cl)nc43)CC2Oc2ccc(C)cc2)cc1 (centres undefined)	5.17 µM	3.82 µM	4.04 µM	3.65 µM	4.01 µM	4.91 µM	35.9 µM	4.27 µM	3.91 µM	3.39 µM	4.37 µM	5.26 µM	23.3 µM	4.53 µM	5.48 µM	11.9 µM	6.4 µM	3.73 µM	7.56 µM

Reference: PubChem BioAssay (NCI)
